One molecule from patent US20200109114A1, “SOLID STATE FORMS OF N-[2-[(I S)-1 -(3-ETHOXY-4-METHOXYPHENYL)-2-(METHYL SULFONYL)ETHYL]-2,3-DIHYDRO-1,3-DIOXO-L H-ISOINDOL-4-YL]ACETAMIDE AND PROCESS FOR PREPARATION THEREOF” (MSN LABORATORIES PRIVATE LIMITED, R&D CENTER, priority 2016, published 2020) can be followed below.

The nature of data set [1]: Hygroscopicity of crystalline form-M. It counts as physicochemical. The text has this: The crystalline form-M of compound of formula-1 of the present invention is non-hygroscopic in nature which is highly advantageous for the formulators.
Data set [2] is described as follows: Solid state stability of crystalline form-M at various conditions (stress, UV light, thermal, humidity). It counts as physicochemical. As for the experimental part: The crystalline form-M of the present invention is stable at various conditions viz.,
a) Stress (10 ton pressure, 3 min) b) UV light (254 nm, 24 hrs) c) Thermal (60° C., 24 hrs) d) Hygroscopicity (75% RH, 24 hrs))

In the case of `CCOc1cc([C@@H](CS(C)(=O)=O)N2C(=O)c3cccc(NC(C)=O)c3C2=O)ccc1OC` [crystalline form-M, N-[2-[(1S)-1-(3-ethoxy-4-methoxyphenyl)-2-(methylsulfonyl)ethyl]-2,3-dihydro-1,3-dioxo-1H-isoindol-4-yl]acetamide], the hygroscopic nature result in data set [1] was “non-hygroscopic”. In addition, the “stability under hygroscopicity condition” value in data set [2] (Hygroscopicity (75% RH, 24 hrs)) was “stable”. Further, in data set [2] (Stress (10 ton pressure, 3 min)), the stability under stress entry is given as “stable”. In addition, the thermal stability result in data set [2] (Thermal (60° C., 24 hrs)) is given as “stable”. The “stability under UV light” value in data set [2] (UV light (254 nm, 24 hrs)) was “stable”.
